According to patent US6376666B1 (Nauchno-Issledovatelsky Institut Farmakologii Rossiiskoi …, priority 1994, dated 2002):

Columns and labels:
C57B1/6 mice = experiment: open-field test, C57B1/6 mice (active type of emotional-stress reaction); format: in vivo; design: key to Total activity: sum of all locomotor activity counts (crossings + rearings) in 3 min; conditions: for Central activity (crossings) / Peripheral activity (crossings) / Total activity / Vertical activity (rearings): M ± mx; for effect on locomotor activity of C57B1/6 mice in open-field test, in words: i.p., doses that activate Balb/c mice
Text: (§1) The main point of this approach consists in comparative analysis of the behavioural effects of tested compounds in two inbred strains of mice Balb/c and C57B1/6 with different hereditary types of emotional-stress reactions (ESR). The anxiolytic effect was estimated as the activation of the locomotor activity of animals with “passive” type of ESR (Balb/c mice). The main index describing the sedative properties of tested drugs was the inhibition of the locomotor activity of mice with “active” type of ESR (C57B1/6 strain). The anxioselectivity was evaluated according to coincidence of doses range which activated or inhibited the behavior of mice of different strains. Earlier this approach has been successfully used for estimation of anxioselective activity of such known drugs as phenazepam [Seredenin S. B. et al., Bull.Exp.Biol.Med., 1979, v.88, N7, p.38; Seredenin S. B. et al., Ann.Inst.Super.Sanita, 1990, v.26, N1, p.81-88], mexidol [Seredenin S. B. et al., Khimiko-Farmatsevt.Zhurnal, 1987, N2, p.134; Vironina T. A., Seredenin S. B., Ann.Inst.Super.Sanita, 1988, v.24, N3, p.461-466] and gidazepam [Seredenin S. B. et al., in: “Gidazepam” Kiev, Naukova Dumka, 1992, p.92; Seredenin S. B., Blednov Yu. A., Phys.Chem.Biol.Med., 1993, v.1, N1, p.53-60].
(§2) Male C57B1/6 and Balb/c mice (“Stolbovaya” animal farm), weighing 20-22 g were used. The animals were housed in a separate animal room in groups of ten and maintained on 12 h light-dark cycle (light from 8.00 till 20.00) with free access to standard food and water during two weeks before experiment. Testing was performed between 9.00 and 13.00. Every used compound was administered intraperitoneally in water solutions 30 min before testing (0,1 ml solution per 10 g of weight). The “open-field” apparatus consisted of cylinder closed from one end, illuminated by four 75 W lamps fixed to the walls 100 cm above the floor. The “open-field” apparatus was 100 cm in diameter and white-painted; the floor was marked with 3 black circles and some radial lines divided the floor into 16 peripheral and 8 central segments. 30 min after injection each animal was placed in the same peripheral square on the floor for 3 min of testing after 1 min exposure in the dark chamber. The following behavior variables were recorded: 1) the number of crossings in the peripheral area (peripheral activity); 2) the number of crossings in the central segments (central activity); 3) the number of rearings (vertical activity); 4) the emotionality was measured as the number of defecations during the test. The sum of all types of locomotor activity was marked as total activity. The t-Student test was used for statistical analysis.

Balb/c mice = experiment: open-field test, Balb/c mice (passive type of emotional-stress reaction); format: in vivo; design: key to Total activity: sum of all locomotor activity counts (crossings + rearings) in 3 min; conditions: for Central activity (crossings) / Number of defecations / Peripheral activity (crossings) / Total activity / Vertical activity (rearings): M ± mx; for effect on the behavior (locomotor activity) of Balb/c mice in open-field test, in words: i.p., screening
Text: as §1, §2

C=CCSc1nc2cc(C)c(C)cc2[nH]1 [III, 2-Allylthio-5,6-dimethylbenzimidazole]
Central activity (crossings) (C57B1/6 mice; 0.1 mg/kg i.p.): 42.1 ± 4.8 | Peripheral activity (crossings) (C57B1/6 mice; 0.1 mg/kg i.p.): 109.4 ± 8.3 | Total activity (C57B1/6 mice; 0.1 mg/kg i.p.): 170.9 ± 10.0 | Vertical activity (rearings) (C57B1/6 mice; 0.1 mg/kg i.p.): 19.4 ± 3.4 | Central activity (crossings) (C57B1/6 mice; 0.5 mg/kg i.p.): 42.1 ± 7.5 | Peripheral activity (crossings) (C57B1/6 mice; 0.5 mg/kg i.p.): 118.4 ± 9.0 | Total activity (C57B1/6 mice; 0.5 mg/kg i.p.): 184.6 ± 8.6 | Vertical activity (rearings) (C57B1/6 mice; 0.5 mg/kg i.p.): 22.6 ± 2.0 | Central activity (crossings) (C57B1/6 mice; 1.0 mg/kg i.p.): 35.9 ± 7.6 | Peripheral activity (crossings) (C57B1/6 mice; 1.0 mg/kg i.p.): 107.8 ± 7.4 | Total activity (C57B1/6 mice; 1.0 mg/kg i.p.): 165.9 ± 13.5 | Vertical activity (rearings) (C57B1/6 mice; 1.0 mg/kg i.p.): 22.3 ± 3.8 | Central activity (crossings) (C57B1/6 mice; 5.0 mg/kg i.p.): 28.8 ± 6.9 | Peripheral activity (crossings) (C57B1/6 mice; 5.0 mg/kg i.p.): 130.8 ± 16.8 | Total activity (C57B1/6 mice; 5.0 mg/kg i.p.): 177.8 ± 20.7 | Vertical activity (rearings) (C57B1/6 mice; 5.0 mg/kg i.p.): 18.6 ± 2.7 | Central activity (crossings) (C57B1/6 mice; 10.0 mg/kg i.p.): 23.6 ± 5.3 | Peripheral activity (crossings) (C57B1/6 mice; 10.0 mg/kg i.p.): 118.0 ± 7.9 | Total activity (C57B1/6 mice; 10.0 mg/kg i.p.): 154.4 ± 13.3 | Vertical activity (rearings) (C57B1/6 mice; 10.0 mg/kg i.p.): 12.9 ± 1.8 | Central activity (crossings) (C57B1/6 mice; 50.0 mg/kg i.p.): 24.0 ± 2.7 | Peripheral activity (crossings) (C57B1/6 mice; 50.0 mg/kg i.p.): 105.2 ± 11.9 | Total activity (C57B1/6 mice; 50.0 mg/kg i.p.): 141.3 ± 11.7 | Vertical activity (rearings) (C57B1/6 mice; 50.0 mg/kg i.p.): 12.1 ± 1.3 | effect on locomotor activity of C57B1/6 mice in open-field test, in words (C57B1/6 mice): without any changes in locomotor activity | Central activity (crossings) (Balb/c mice; 0.1 mg/kg i.p.): 3.3 ± 2.0 | Number of defecations (Balb/c mice; 0.1 mg/kg i.p.): 2.5 ± 0.9 | Peripheral activity (crossings) (Balb/c mice; 0.1 mg/kg i.p.): 28.1 ± 5.8 | Total activity (Balb/c mice; 0.1 mg/kg i.p.): 32.1 ± 7.9 | Vertical activity (rearings) (Balb/c mice; 0.1 mg/kg i.p.): 0.6 ± 0.4 | Central activity (crossings) (Balb/c mice; 1.0 mg/kg i.p.): 0.6 ± 0.3 | Number of defecations (Balb/c mice; 1.0 mg/kg i.p.): 2.5 ± 0.7 | Peripheral activity (crossings) (Balb/c mice; 1.0 mg/kg i.p.): 35.8 ± 6.1 | Total activity (Balb/c mice; 1.0 mg/kg i.p.): 36.4 ± 6.4 | Central activity (crossings) (Balb/c mice; 5.0 mg/kg i.p.): 0.3 ± 0.3 | Number of defecations (Balb/c mice; 5.0 mg/kg i.p.): 3.0 ± 0.7 | Peripheral activity (crossings) (Balb/c mice; 5.0 mg/kg i.p.): 46.8 ± 9.9 | Total activity (Balb/c mice; 5.0 mg/kg i.p.): 47.5 ± 10.3 | Vertical activity (rearings) (Balb/c mice; 5.0 mg/kg i.p.): 0.4 ± 0.3 | Central activity (crossings) (Balb/c mice; 10.0 mg/kg i.p.): 3.3 ± 2.1 | Number of defecations (Balb/c mice; 10.0 mg/kg i.p.): 2.0 ± 0.7 | Peripheral activity (crossings) (Balb/c mice; 10.0 mg/kg i.p.): 56.1 ± 12.2 | Total activity (Balb/c mice; 10.0 mg/kg i.p.): 59.4 ± 13.8 | Number of defecations (Balb/c mice; 20.0 mg/kg i.p.): 1.5 ± 0.7 | Peripheral activity (crossings) (Balb/c mice; 20.0 mg/kg i.p.): 24.0 ± 11.5 | Total activity (Balb/c mice; 20.0 mg/kg i.p.): 24.1 ± 11.5 | effect on the behavior (locomotor activity) of Balb/c mice in open-field test, in words (Balb/c mice): able to activate the behavior of Balb/c mice

Cc1cc2nc(SCCN3CCCC3)[nH]c2cc1C [XIII, 2-[2-(Pyrrolidino)ethylthio]-5,6-dimethylbenzimidazole]
effect on locomotor activity of C57B1/6 mice in open-field test, in words (C57B1/6 mice): without any changes in locomotor activity | Central activity (crossings) (Balb/c mice; 0.5 mg/kg i.p.): 4.3 ± 4.1 | Number of defecations (Balb/c mice; 0.5 mg/kg i.p.): 2.9 ± 0.6 | Peripheral activity (crossings) (Balb/c mice; 0.5 mg/kg i.p.): 32.0 ± 5.7 | Total activity (Balb/c mice; 0.5 mg/kg i.p.): 36.3 ± 9.8 | Central activity (crossings) (Balb/c mice; 1.0 mg/kg i.p.): 0.8 ± 0.5 | Number of defecations (Balb/c mice; 1.0 mg/kg i.p.): 1.0 ± 0.5 | Peripheral activity (crossings) (Balb/c mice; 1.0 mg/kg i.p.): 80.0 ± 11.2 | Total activity (Balb/c mice; 1.0 mg/kg i.p.): 80.8 ± 11.7 | Number of defecations (Balb/c mice; 5.0 mg/kg i.p.): 1.6 ± 0.7 | Peripheral activity (crossings) (Balb/c mice; 5.0 mg/kg i.p.): 69.0 ± 13.2 | Total activity (Balb/c mice; 5.0 mg/kg i.p.): 69.0 ± 13.2 | Central activity (crossings) (Balb/c mice; 50.0 mg/kg i.p.): 0.7 ± 0.5 | Peripheral activity (crossings) (Balb/c mice; 50.0 mg/kg i.p.): 27.7 ± 6.2 | Total activity (Balb/c mice; 50.0 mg/kg i.p.): 28.4 ± 6.7 | effect on the behavior (locomotor activity) of Balb/c mice in open-field test, in words (Balb/c mice): able to activate the behavior of Balb/c mice
